Our source for the IC50 values is ChEMBL document CHEMBL1134135, “Nitrobenzene compounds inhibit expression of VCAM-1” (Bioorg Med Chem Lett, 2001).

The target of this experiment is T1, Vascular cell adhesion protein 1 (Homo sapiens, UniProt P19320).
T1 sequence (P19320 whole entry): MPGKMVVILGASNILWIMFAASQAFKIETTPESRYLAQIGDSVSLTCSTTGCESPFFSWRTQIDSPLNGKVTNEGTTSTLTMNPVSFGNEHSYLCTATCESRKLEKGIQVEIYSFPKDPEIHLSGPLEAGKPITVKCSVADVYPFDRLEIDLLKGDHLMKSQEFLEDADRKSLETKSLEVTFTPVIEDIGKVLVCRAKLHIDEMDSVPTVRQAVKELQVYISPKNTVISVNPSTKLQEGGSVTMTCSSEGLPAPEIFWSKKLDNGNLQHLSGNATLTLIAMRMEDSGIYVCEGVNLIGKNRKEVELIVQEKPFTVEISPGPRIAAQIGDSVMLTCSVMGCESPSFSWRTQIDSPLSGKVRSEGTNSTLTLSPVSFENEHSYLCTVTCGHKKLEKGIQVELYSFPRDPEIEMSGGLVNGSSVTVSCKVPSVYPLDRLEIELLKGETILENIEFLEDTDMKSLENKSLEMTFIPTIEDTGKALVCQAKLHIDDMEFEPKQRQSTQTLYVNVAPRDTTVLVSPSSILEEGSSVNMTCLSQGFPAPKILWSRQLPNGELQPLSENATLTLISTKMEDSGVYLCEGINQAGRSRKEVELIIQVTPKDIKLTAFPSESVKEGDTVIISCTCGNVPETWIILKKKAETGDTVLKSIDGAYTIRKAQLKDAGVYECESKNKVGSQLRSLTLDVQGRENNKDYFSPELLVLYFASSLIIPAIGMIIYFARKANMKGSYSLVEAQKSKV
The experiment can be described thus: Ability to inhibit expression of Vascular cell adhesion molecule 1; No effect.
Take `O=C(O)C1CCN(S(=O)(=O)c2ccc(Cl)c([N+](=O)[O-])c2)CC1`: the IC50 result is reported as “Not Active”. Consider `CCN(CC)S(=O)(=O)c1cccc([N+](=O)[O-])c1`, for which the IC50 result is “Not Active”.

Regarding `CCN(CC)S(=O)(=O)c1ccc(Cl)cc1`, the IC50 entry is “Not Active”. As for `N#Cc1cc(Cl)cc(Cl)c1`, the entry is “Not Active”; as for `O=[N+]([O-])c1ccccc1Cl`, “Not Active”; as for `CCN(CC)c1ccc(S(=O)(=O)N(CC)CC)cc1[N+](=O)[O-]`, “Not Active”.
